# Laboratory results from patent US20260125387A1, “(R)-N-ETHYL-5-FLUORO-N-ISOPROPYL-2-((5-(2-(6-((2-METHOXYETHYL)(METHYL)AMINO)-2-METHYLHEXAN-3-YL)-2,6-DIAZASPIRO[3.4]OCTAN-6-YL)-1,2,4-TRIAZIN-6-YL)OXY)BENZAMIDE BESYLATE SALT” (Janssen Pharmaceutica NV, priority 2021, published 2026).
# Where a name gives a salt, the structure may show the parent alone.
# Columns and labels:
# [1] = system: human pluripotent stem cell-derived cardiomyocytes (iCell Cardiomyocytes2); experiment: Ca2+-fluorescence assay in hSC-derived cardiomyocytes (CTCM human), hazard scoring; format: cell-based; parameters: key to Hazard scoring, Color @ 0.1 μM / Hazard scoring, Color @ 0.2 μM / Hazard scoring, Color @ 0.5 μM / Hazard scoring, Color @ 1 μM / Hazard scoring, Color @ 2.5 μM / Hazard scoring, Color @ 5 μM / Hazard scoring, Color @ 0.3 μM / Hazard scoring, Color @ 3 μM / Hazard scoring, Color @ 10 μM: Green: No concern; Yellow: Low concern; Red: High concern; Black: Very high concern due to arrhythmic events
# Method: 7) Cardio-Electrophysiological Effects of the Testing Compounds in Synchronously Beating Human Pluripotent Stem Cell-Derived Cardiomyocytes (hSC-CMs) Using a Ca^2+-Fluorescence Assay (CTCM human)
# Compounds were tested in the 96-well plates.
# Compounds were tested at 0.1 μM, 0.2 μM, 0.5 μM, 1 μM, 2.5 μM and 5 μM (n=4 per dose) on Cor.4U®-Cardiomyocytes or on iCell® Cardiomyocytes2.
# Alternatively, compounds were tested at 0.1 μM, 0.3 μM; 1 μM, 3 μM, 10 μM and 30 μM (n=4 per dose) mostly on iCell® Cardiomyocytes2.
# Vehicle control: Dimethylsulfoxide (DMSO). The solutions of the compound in DMSO or its solvent (final concentration of 0.1% DMSO; n=8).
# Tested compounds were dissolved in DMSO at 1000-fold the intended concentrations. A compound “mother-plate” was made, containing the test compounds and positive and negative controls at 1000-fold the final concentrations. At the experiment day, these stock solutions were diluted with Tyrode (Sigma), supplemented with 10 mM HEPES (Gibco), to 2-fold the intended concentration (in round bottom compound plates). Final DMSO concentration in test solutions and vehicle control was 0.1%.
# hSC-CMs (Cor.4U® Cardiomyocytes) were obtained from CDI (Ncardia, Germany). Cells are pre-plated and seeded in fibronectin-coated 96-well plates at a density suited to form a monolayer and maintained in culture in a stage incubator (37° C., 5% CO2), according to the instructions of the cell provider.
# Second line hSC derived cardiomyocyte called iCell® Cardiomyocytes2 were purchased from FUJIFILM Cellular Dynamics (USA). The experiments with test drugs are carried out 5 to 7 days after plating the cells onto the plate to have a living, beating monolayer of hiPSC-derived cardiomyocytes. The beating monolayer in 96-well-plates are normally taken from 2 Vials of frozen iCell® Cardiomyocytes2 (≈5 million cells/vial), which will be plated onto three 96-well plates (≈50K/well).
# At least one hour before the start of the experiments the normal cell medium was replaced with Tyrode solution with Calcium dye (see below).
# Cal 520 dye (AAT Bioquest) was dissolved in 11 ml of Tyrode supplemented with 10 mM HEPES and warmed up to 37 C before adding to the cells.
# 35 μl cell culture medium was removed from each well and replaced with 35 μl of pre-warmed Cal 520 dye solution and cell plate was incubated for 45 min at 37° C./5% CO2. Cells were incubated for 5 min at 37° C.
# Spontaneous electrical activity is recorded, using Cal520™ (AAT Bioquest) calcium fluorescence-dye signaling. This dye integrates the total intracellular calcium activity over the whole well. A bottle of Cal520 dye (50 μg, MW: 1103/mol) is dissolved with 50 μl DMSO as a stock solution of 0.9 mM. 50 μL of the stock solution of the dye was added to 10 ml Tryodes solution to have dye concentration of 4.5 μM. Subsequently, 35 μl of this dye solution was added into each well, to have a final dye concentration of 1.58 μM. The current dye protocol on this CTCM human assay was established recently (Ivan Kopljar et al, Journal of Pharmacological and toxicological methods 2018. 91: 80-86; Lu et al., Tox Sci 2019. 170 (2): 345-356).
# Fluorescent signals (Ca^2+ transient morphology) were measured using the Functional Drug Screen System (FDSS/pCell; Hamamatsu, Japan) and the recordings were subsequently analyzed off-line, using appropriate software e.g. Notocord.
# The cell plate was loaded into the FDSS/pCell for a test run: Ca^2+ transients were measured for 4 minutes to check for synchronous beating of the cardiomyocytes in each well. All 96 wells were measured simultaneously (sampling interval: 0.06 s, short exposure time: 10 ms; excitation wavelength 480 nm; emission wavelength 540 nm; FDSS/pCell warmed to 37° C.).
# During the compound addition step, 100 μl of the respective double-concentrated test solutions was pipetted into each well simultaneously.
# Data were analyzed off-line using appropriate software e.g. Notocord-Hem (version 4.3). […]
# [2] = system: OCI-AML3 tumors (disseminated, IV); experiment: Efficacy study in disseminated OCI-AML3 model (survival); format: in vivo, mouse; details: vehicle control 38.5 days
# Method: Doses were adjusted by individual body weight each day.
# Female SCID beige mice (CB17.Cg-PrkdcscidLystbg-J/Crl/−) were used when they were approximately 6 to 8 weeks of age and weighed approximately 25 g. All animals could acclimate and recover from any shipping-related stress for a minimum of 7 days prior to experimental use. Autoclaved water and irradiated food were provided ad libitum, and the animals were maintained on a 12 hour light and dark cycle. Cages, bedding, and water bottles were autoclaved before use and changed weekly. The tissue culture and cell injection reagents are summarized below in Table 14.
# Human AML cell line OCI-AML3 was cultured at 37° C., 5% CO2 in the indicated complete culture media (MEM Alpha+20% HI—FBS (Heat-Inactivated Fetal Bovine Serum)+2 mM L-glutamine+50 ug/ml Gentamycin). […]
# Animals were monitored daily for clinical signs related to either compound toxicity or tumor burden (i.e., hind limb paralysis, lethargy, etc.).
# Median survival was determined utilizing Kaplan-Meier survival analysis. […]
# Statistical significance for body weights was evaluated as described above. Statistical significance was evaluated for Kaplan-Meier survival plots comparing therapeutic treatment group vs. appropriate vehicle-treated control using log-rank (Mantel-Cox) test in R software version 3.4.2. […]
# MOLM-14 cells = experiment: Proliferation assay (spheroid, day 8 confluence), MOLM-14; format: cell-based; details: Homo sapiens, 8 days, read-out: spheroid assay_OneTime MOLM-14 IC50
# KO-52 cells = experiment: Proliferation assay (spheroid, day 8 confluence), KO-52 control cell line; format: cell-based; details: Homo sapiens; 8 days; read-out: spheroid assay_OneTime KO-52 IC50
# Method: The anti-proliferative effect of menin/MLL protein/protein interaction inhibitor test compounds was assessed in human leukemia cell lines. The cell line MOLM-14 harbors a MLL translocation and expresses the MLL fusion protein MLL-AF9, respectively, as well as the wildtype protein from the second allele. OCI-AML3 cells that carry the NPM1c gene mutation were also tested. […] KO-52 was used as a control cell line containing two MLL (KMT2A) wildtype alleles in order to exclude compounds that display general cytotoxic effects.
# KO-52 and OCI-AML3 cell lines were propagated in alpha-MEM (Sigma Aldrich) supplemented with 20% heat-inactivated fetal bovine serum (HyClone), 2 mM L-glutamine (Sigma Aldrich) and 50 μg/ml gentamycin (Gibco).
# In order to assess the anti-proliferative effects, 200 MOLM-14 cells, 200 OCI-AML3 cells or 300 KO-52 cells were seeded in 200 μl media per well in 96-well round bottom, ultra-low attachment plates (Costar, catalogue number 7007). […] Spheroid like growth was measured in real-time by live-cell imaging (IncuCyteZOOM, Essenbio, 4× objective) acquiring images at day 8. Confluence (%) as a measure of spheroid size was determined using an integrated analysis tool.
# In order to determine the effect of the test compounds over time, the confluence in each well as a measure of spheroid size, was calculated. […]
# [3] = Stability experiments under stress conditions (UHPLC purity, XRD); format: physicochemical; details: for XRD after stress: Reference Crystalline, form A
# [4] = iCell Cardiomyocytes2, 30 min incubation
# [5] = efficacious dose in mouse xenograft models of 30 mpk, (mouse, human)
structure (smiles),measurement,setting,value
"CCN(C(=O)c1cc(F)ccc1Oc1nncnc1N1CCC2(C1)CN([C@H](CCCN(C)CCOC)C(C)C)C2)C(C)C [Compound A1, (R)—N-ethyl-5-fluoro-N-isopropyl-2-((5-(2-(6-((2-methoxyethyl)(methyl)-amino)-2-methylhexan-3-yl)-2,6-diazaspiro[3.4]octan-6-yl)-1,2,4-triazin-6-yl)oxy)-benzanilide 0.2 HCl·x H2O (x=2-3)]","Hazard scoring, Color @ 0.1 μM",[1]; [4],Green
same,"Hazard scoring, Color @ 0.3 μM","[1]; 0.3 μM, iCell Cardiomyocytes2, 30 min incubation",Green
same,"Hazard scoring, Color @ 1 μM",[1]; [4],Green
same,"Hazard scoring, Color @ 3 μM","[1]; 3 μM, iCell Cardiomyocytes2, 30 min incubation",Green
same,"Hazard scoring, Color @ 10 μM","[1]; 10 μM, iCell Cardiomyocytes2, 30 min incubation",Green
same,"Hazard scoring, Color @ 30 μM","[1]; 30 μM, iCell Cardiomyocytes2, 30 min incubation",yellow
same,Margin CTCM human 10 μM vs free Cmax,[1]; [5],> 16
same,Margin CTCM human 30 μM vs free Cmax,[1]; [5],> 45
"CCN(C(=O)c1cc(F)ccc1Oc1nncnc1N1CCC2(C1)CN([C@H](CCCN(C)CCOC)C(C)C)C2)C(C)C [Compound A3, (R)—N-ethyl-5-fluoro-N-isopropyl-2-((5-(2-(6-((2-methoxyethyl) (methyl)amino)-2-methylhexan-3-yl)-2,6-diazaspiro[3.4]octan-6-yl)-1,2,4-triazin-6-yl)oxy) benzamide oxalate]","Hazard scoring, Color @ 0.1 μM",[1]; [4],Green
same,"Hazard scoring, Color @ 0.2 μM","[1]; 0.2 μM, iCell Cardiomyocytes2, 30 min incubation",Green
same,"Hazard scoring, Color @ 0.5 μM","[1]; 0.5 μM, iCell Cardiomyocytes2, 30 min incubation",Green
same,"Hazard scoring, Color @ 1 μM",[1]; [4],Green
same,"Hazard scoring, Color @ 2.5 μM","[1]; 2.5 μM, iCell Cardiomyocytes2, 30 min incubation",Green
same,"Hazard scoring, Color @ 5 μM","[1]; 5 μM, iCell Cardiomyocytes2, 30 min incubation",Green
same,median days of survival,[2]; 30 mg/kg PO daily for 28 days,75.5 days
same,median days of survival,[2]; 50 mg/kg PO daily for 28 days,58.5 days
"CCN(C(=O)c1cc(F)ccc1Oc1nncnc1N1CCC2(C1)CN([C@H](CCCN(C)CCOC)C(C)C)C2)C(C)C [Compound A4, (R)—N-ethyl-5-fluoro-N-isopropyl-2-((5-(2-(6-((2-methoxyethyl)(methyl)amino)-2-methylhexan-3-yl)-2,6-diazaspiro[3.4]octan-6-yl)-1,2,4-triazin-6-yl)oxy)benzamide bis-besylate salt hydrate]",IC50,MOLM-14 cells,8 nM
same,IC50,KO-52 cells,5440 nM
same,Besylate salt Purity after stress,"[3]; 50° C./10% RH, 7 days, Reference 99.65",99.64
same,Besylate salt Purity after stress,"[3]; 50° C./10% RH, 14 days, Reference 99.65",99.62
same,Besylate salt Purity after stress,"[3]; 50° C./30% RH, 21 days, Reference 99.21",99.32
same,XRD after stress,"[3]; 50° C./30% RH, 21 days",Complies to ref
same,Besylate salt Purity after stress,"[3]; 50° C./50% RH, 7 days, Reference 99.65",99.65
same,Besylate salt Purity after stress,"[3]; 50° C./50% RH, 14 days, Reference 99.65",99.66
same,Besylate salt Purity after stress,"[3]; 50° C./75% RH, 21 days, Reference 99.21",99.36
same,XRD after stress,"[3]; 50° C./75% RH, 21 days",Complies to ref
same,"chemical and physical stability (UHPLC, XRD)",[3]; under evaluated stress conditions,chemically and physically stable
